The structures appear in SMILES notation. Entries after “also recorded” stand apart in the source; their conditions may differ. Where a SMILES comes first, the peptide text is derived from it. Bridges are numbered along the chain shown (N, C = ends).

Series [1] is classed as physicochemical. The following applies: pH 7.4. The method, then: Dry peptides were dissolved into PBS buffer at pH 7.4 at different initial concentrations, and were incubated for 7 days at 25° C. without stirring. Each sample was then centrifuged using a Beckman Coulter Microfuge 22R Centrifuge at 24° C. for 20 min. The relative centrifugal force used was 1.75×10^4 g. Solubility of each sample was approximated by measuring the absorbance of the corresponding supernatant at 280 nm measured using a Beckman Coulter DU 730 UV/Vis Spectrophotometer. All of the peptides contain a single Tyr, 3 Phe and a disulfide bond, thus their extinction coefficients at 280 nm are very similar. The solubility of PM and the mutant hIAPP polypeptides of the present disclosure was analyzed and compared at pH 7.4. Each peptide was incubated in buffer for 7 days at three different concentrations (100 μM, 500 μM and 1 mM) and the solution was then centrifuged. The apparent solubility was represented by the absorbance of the supernatant of each sample measured at 280 nm. […] Additionally, the supernatant of QM sample has a higher absorbance, 0.162, than that of TM-a and PM, 0.103 and 0.112 respectively (FIG. 4A). […] At 1 mM, the absorbance of the soluble fraction of TM-a, TM-b and QM were 1.23, 1.49, and 1.33 respectively, while that value of PM was only 0.354. In comparison, the absorbance of the supernatant of the 1 mM hIAPP was 0.109 (FIGS. 4A-C).

A short description of series [2]: Thioflavin-T fluorescence assay of amyloid formation kinetics. The format is physicochemical. The following applies: 20 mM Tris-HCl pH 7.4, 25° C., without stirring. The method, then:
Each peptide was dissolved into 100% hexafluoroisoproponal (HFIP) to make a 1.6 mM stock solution. Stock solutions were filtered using […] Acrodisc syringe filter with a GHP membrane and the required amount of peptide was lyophilized overnight to remove HFIP. Dry peptide was dissolved into the appropriate buffer for the fluorescence assays. Thioflavin-T binding assays, conducted without HFIP or stirring at 25° C., were utilized to monitor amyloid formation kinetics. Fluorescence measurements were performed using a Beckman Coulter DTX 880 plate reader with a multimode detector using an excitation wavelength of 430 nm and an emission wavelength of 485 nm. Samples were prepared by dissolving dry peptide into Tris-HCl buffer and thioflavin-T solution immediately before the measurement. The final concentrations were 16 μM hIAPP or 160 μM of each analog and 32 μM thioflavin-T in 20 mM Tris-HCl (pH 7.4). After creating mutant hIAPP polypeptides of the present disclosure, applicants tested the propensity of the different analogs to form amyloid at pH 7.4 using thioflavin-T fluorescence assays. […] Amyloid formation follows a sigmoidal time course consisting of a lag phase in which few, if any, fibrils are formed, followed by a growth phase and a saturation phase in which amyloid fibrils are in equilibrium with soluble peptide.

A short description of series [3]: Transmission electron microscopy (TEM) of samples at end of kinetic experiments. The following applies: aliquots at end of kinetic experiment; 16 μM hIAPP, 160 μM analogs, pH 7.4. The format is physicochemical. The method, then: TEM images were collected at the Life Science Microscopy Center at the State University of New York at Stony Brook. 15 μL aliquots of the samples used for fluorescence assays were removed at the end of each kinetic experiment, blotted on a carbon-coated 200-mesh copper grid for 1 min and then negatively stained with saturated uranyl acetate for 1 min. Samples were further analyzed using TEM and CD.

The nature of series [4]: Far-UV circular dichroism (CD) of aliquots at end of kinetic experiments. Format: physicochemical. The following applies: aliquots at end of kinetic experiment, 25° C. The method, then: Far-UV CD experiments were performed on an Applied Photophysics Chirascan CD spectrophotometer at 25° C. Aliquots from the kinetic experiments were removed at the end of each experiment and the spectra were recorded as the average of three repeats over a range of 190-260 nm, at 1 nm intervals. A 0.1 cm quartz cuvette was used and a background spectrum was subtracted from the data. Samples were further analyzed using TEM and CD.

For `CC(C)C[C@H](NC(=O)[C@H](CCCNC(=N)N)NC(=O)[C@H](CCC(N)=O)NC(=O)[C@@H](NC(=O)[C@H](C)NC(=O)[C@@H]1CSSC[C@H](NC(=O)[C@@H](N)CCCCN)C(=O)N[C@@H](CC(N)=O)C(=O)N[C@@H]([C@@H](C)O)C(=O)N[C@@H](C)C(=O)N[C@@H]([C@@H](C)O)C(=O)N1)[C@@H](C)O)C(=O)N[C@@H](C)C(=O)N[C@@H](CC(N)=O)C(=O)N[C@@H](Cc1ccccc1)C(=O)N[C@@H](CC(C)C)C(=O)N[C@H](C(=O)N[C@@H](CCCNC(=N)N)C(=O)N[C@@H](CO)C(=O)N[C@@H](CO)C(=O)N[C@@H](CC(N)=O)C(=O)N[C@@H](CC(N)=O)C(=O)N[C@@H](Cc1ccccc1)C(=O)NCC(=O)N[C@@H](C)C(=O)N1CCC[C@H]1C(=O)N[C@@H](CC(C)C)C(=O)N[C@@H](CO)C(=O)N[C@@H](CO)C(=O)N[C@H](C(=O)N[C@@H](CC(N)=O)C(=O)N[C@H](C(=O)NCC(=O)N[C@@H](CO)C(=O)N[C@@H](CC(N)=O)C(=O)N[C@H](C(=O)N[C@@H](Cc1ccc(O)cc1)C(N)=O)[C@@H](C)O)C(C)C)[C@@H](C)O)C(C)C` [DM] (H-KCNTATCATQRLANFLVRSSNNFGAPLSSTNVGSNTY-NH2; disulfide 2-7; N-terminus assumed), in series [1], the “solubility at neutral pH compared with PM / wild-type hIAPP” value is recorded as “much better solubility at neutral pH than PM”.

Turning to `CC[C@H](C)[C@H](NC(=O)[C@@H]1CCCN1C(=O)CNC(=O)[C@H](Cc1ccccc1)NC(=O)[C@H](CC(N)=O)NC(=O)[C@H](CC(N)=O)NC(=O)[C@H](CO)NC(=O)[C@H](CO)NC(=O)[C@H](Cc1c[nH]cn1)NC(=O)[C@@H](NC(=O)[C@H](CC(C)C)NC(=O)[C@H](Cc1ccccc1)NC(=O)[C@H](CC(N)=O)NC(=O)[C@H](C)NC(=O)[C@H](CC(C)C)NC(=O)[C@H](CCCNC(=N)N)NC(=O)[C@H](CCC(N)=O)NC(=O)[C@@H](NC(=O)[C@H](C)NC(=O)[C@@H]1CSSC[C@H](NC(=O)[C@@H](N)CCCCN)C(=O)N[C@@H](CC(N)=O)C(=O)N[C@@H]([C@@H](C)O)C(=O)N[C@@H](C)C(=O)N[C@@H]([C@@H](C)O)C(=O)N1)[C@@H](C)O)C(C)C)C(=O)N[C@@H](CC(C)C)C(=O)N1CCC[C@H]1C(=O)N1CCC[C@H]1C(=O)N[C@H](C(=O)N[C@@H](CC(N)=O)C(=O)N[C@H](C(=O)NCC(=O)N[C@@H](CO)C(=O)N[C@@H](CC(N)=O)C(=O)N[C@H](C(=O)N[C@@H](Cc1ccc(O)cc1)C(N)=O)[C@@H](C)O)C(C)C)[C@@H](C)O` [PM], in series [2] (160 μM peptide, about 140 hrs), the “amyloid formation monitored by thioflavin-T fluorescence” value was “flat fluorescence curves; also recorded: do not form amyloid”. The “fibril morphology in TEM images” value in series [3] is “no fibrils were found”.

Regarding `CC[C@H](C)[C@H](NC(=O)[C@H](C)NC(=O)CNC(=O)[C@H](Cc1ccccc1)NC(=O)[C@H](CC(N)=O)NC(=O)[C@H](CC(N)=O)NC(=O)[C@H](CO)NC(=O)[C@H](CO)NC(=O)[C@H](Cc1c[nH]cn1)NC(=O)[C@@H](NC(=O)[C@H](CC(C)C)NC(=O)[C@H](Cc1ccccc1)NC(=O)[C@H](CC(N)=O)NC(=O)[C@H](C)NC(=O)[C@H](CC(C)C)NC(=O)[C@H](CCCNC(=N)N)NC(=O)[C@H](CCC(N)=O)NC(=O)[C@@H](NC(=O)[C@H](C)NC(=O)[C@@H]1CSSC[C@H](NC(=O)[C@@H](N)CCCCN)C(=O)N[C@@H](CC(N)=O)C(=O)N[C@@H]([C@@H](C)O)C(=O)N[C@@H](C)C(=O)N[C@@H]([C@@H](C)O)C(=O)N1)[C@@H](C)O)C(C)C)C(=O)N[C@@H](CC(C)C)C(=O)N[C@@H](CO)C(=O)N[C@@H](CO)C(=O)N[C@H](C(=O)N[C@@H](CC(N)=O)C(=O)N[C@H](C(=O)NCC(=O)N[C@@H](CO)C(=O)N[C@@H](CC(N)=O)C(=O)N[C@H](C(=O)N[C@@H](Cc1ccc(O)cc1)C(N)=O)[C@@H](C)O)C(C)C)[C@@H](C)O` [hIAPP], the “secondary structure by CD spectrum” value in series [4] is “β-sheet structure”. Also, the “time for amyloid formation to reach the saturation phase” value in series [2] (16 μM hIAPP) is at most 40 h. For the same molecule, the “absorbance of the supernatant at 280 nm (apparent solubility)” value in series [1] is given as 0.109. Besides, the “fibril morphology in TEM images” value in series [3] is “typical amyloid fibril morphology”.

These data come from patent US10683333B2, “Islet amyloid polypeptides with improved solubility” (The Research Foundation for The State University of New York, priority 2014, dated 2020).
